One experiment concerns the target T1, EphA3 (Homo sapiens, UniProt P29320).
T1 sequence (P29320 21-983): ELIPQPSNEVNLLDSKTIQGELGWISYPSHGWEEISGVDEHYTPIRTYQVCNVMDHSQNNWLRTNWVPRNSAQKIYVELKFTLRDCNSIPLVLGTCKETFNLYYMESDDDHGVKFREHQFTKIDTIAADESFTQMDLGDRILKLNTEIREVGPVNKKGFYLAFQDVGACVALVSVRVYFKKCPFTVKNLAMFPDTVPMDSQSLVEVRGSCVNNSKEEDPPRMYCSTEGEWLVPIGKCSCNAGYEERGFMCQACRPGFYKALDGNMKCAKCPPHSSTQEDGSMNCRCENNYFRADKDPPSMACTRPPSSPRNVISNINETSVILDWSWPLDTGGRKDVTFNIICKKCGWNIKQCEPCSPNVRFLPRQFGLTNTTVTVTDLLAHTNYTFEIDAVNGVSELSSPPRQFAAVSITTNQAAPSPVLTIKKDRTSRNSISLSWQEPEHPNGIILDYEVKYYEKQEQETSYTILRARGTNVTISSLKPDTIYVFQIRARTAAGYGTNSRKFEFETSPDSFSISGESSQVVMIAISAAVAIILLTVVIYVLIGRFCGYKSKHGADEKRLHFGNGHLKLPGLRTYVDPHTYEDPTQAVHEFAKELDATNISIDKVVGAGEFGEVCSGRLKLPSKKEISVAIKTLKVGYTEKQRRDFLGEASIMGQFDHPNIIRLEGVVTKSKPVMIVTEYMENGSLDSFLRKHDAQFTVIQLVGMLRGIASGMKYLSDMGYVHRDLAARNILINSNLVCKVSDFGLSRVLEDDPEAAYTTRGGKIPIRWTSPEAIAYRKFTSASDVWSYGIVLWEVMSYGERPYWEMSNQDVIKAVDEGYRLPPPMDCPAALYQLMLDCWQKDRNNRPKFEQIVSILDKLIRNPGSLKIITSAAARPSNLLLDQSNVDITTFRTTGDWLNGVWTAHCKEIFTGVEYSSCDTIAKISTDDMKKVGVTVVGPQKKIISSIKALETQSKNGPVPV
Briefly: Differential Scanning Fluorimetry. Conditions: 2 µmol/L EphA3, test compound 20 µmol/L, pH 8.0; read-out: difference in the melting temperature Tm (Δ Tm). It counts as binding. As for the experimental part: To a 2 µmol/L solution of EphA3 in 10mM Tris HCl buffer (pH 8.0) containing 100mM NaCl, 5X SYPRO Orange fluorescent dye together with the test compounds prediluted in DMSO at a concentration of 20 µmol/L (1.4% final DMSO concentration). A final volume of 40 µL was added per well in a 96-well plate and incubated at room temperature for 1 h. The plates were centrifuged for 3 min at 450 rcf. The temperature gradient was performed in the range of 25 to 75 °C (50 acquisitions per degree at a ramp rate of […]) using a LightCycler 480 Real-Time PCR System. The detection of protein unfolding was performed with an excitation wavelength of 488 nm and an emission of 580 nm. All measurements were performed in triplicate. Compound 2 comprises a difference in the melting temperature Tm (corresponding to the temperature at which the concentrations of folded and unfolded protein are equal) with respect to EphA3 of 11.44 °C (Δ Tm), whereas prior art compounds 17 and 87 presented differences in the melting temperature Tm with respect to EphA3 of 1.6 and 0.7 °C, respectively.
In general terms: Differential scanning fluorimetry follows unfolding on heating by fluorescence.

In the next experiment the target is T2, EphB4 (Homo sapiens, UniProt P54760).
T2 sequence (P54760 16-987): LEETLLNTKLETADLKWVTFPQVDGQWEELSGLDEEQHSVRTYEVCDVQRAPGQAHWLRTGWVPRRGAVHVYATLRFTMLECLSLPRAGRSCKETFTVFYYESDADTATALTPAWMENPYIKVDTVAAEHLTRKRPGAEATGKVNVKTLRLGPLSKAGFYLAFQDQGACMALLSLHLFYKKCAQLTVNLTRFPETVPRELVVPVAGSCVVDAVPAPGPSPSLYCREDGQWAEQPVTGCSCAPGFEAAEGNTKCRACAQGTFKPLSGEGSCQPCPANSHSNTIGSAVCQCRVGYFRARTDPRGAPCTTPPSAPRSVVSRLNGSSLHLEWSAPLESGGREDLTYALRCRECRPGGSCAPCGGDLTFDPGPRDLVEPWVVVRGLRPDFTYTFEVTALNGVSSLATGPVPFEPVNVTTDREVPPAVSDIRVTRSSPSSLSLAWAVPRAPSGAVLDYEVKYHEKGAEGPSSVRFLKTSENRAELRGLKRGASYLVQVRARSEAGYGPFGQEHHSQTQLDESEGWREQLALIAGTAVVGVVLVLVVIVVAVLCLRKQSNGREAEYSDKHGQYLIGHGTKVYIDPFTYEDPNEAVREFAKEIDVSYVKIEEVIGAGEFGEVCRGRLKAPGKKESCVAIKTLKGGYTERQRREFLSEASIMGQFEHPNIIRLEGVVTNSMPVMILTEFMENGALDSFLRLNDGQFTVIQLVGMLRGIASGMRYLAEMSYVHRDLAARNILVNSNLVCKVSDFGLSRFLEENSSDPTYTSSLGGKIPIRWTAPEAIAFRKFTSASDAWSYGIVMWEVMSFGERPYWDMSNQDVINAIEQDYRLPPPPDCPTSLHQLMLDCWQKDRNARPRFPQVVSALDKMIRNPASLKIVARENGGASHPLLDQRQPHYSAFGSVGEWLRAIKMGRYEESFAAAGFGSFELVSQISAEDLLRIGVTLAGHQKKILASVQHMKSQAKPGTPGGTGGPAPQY
As to the kind of experiment: Cellular phosphorylation assay (EphB4 autophosphorylation, sandwich ELISA). It counts as cell-based. Set-up: stably transfected to overexpress full-length human EphB4; host or cells: mouse embryonic fibroblast cells. To be noted: mouse embryonic fibroblast cells overexpressing full-length human EphB4; 90 min at 37 °C; stimulated with murine ephrinB2-Fc. As for the experimental part:
Mouse embryonic fibroblast cells, stably transfected to overexpress full-length human EphB4, were plated at 4×10^4 cells/well in DMEM supplemented with 10% FCS in 48-well culture dishes. Medium was replaced by DMEM without FCS before test compounds prediluted in 100% DMSO were added (final DMSO concentration of 1 %). […] Quantification of EphB4 phosphorylation was assessed in a 96-well plate via sandwich ELISA using a myc capture antibody and an antiphosphotyrosine detection antibody.
In general terms: An ELISA detects its analyte on a solid surface through an enzyme-linked reagent.

`Cc1ccc(O)cc1-n1c(N)c(C(N)=O)c2nc3ccccc3nc21` [Compound 2, 2-Amino-1-(5-hydroxy-2-methylphenyl)-1H-pyrrolo[2,3-b]quinoxaline-3-carboxamide]: the ΔTm at 20 µM at EphA3 came out at 11.4 °C. Besides, at EphB4, the IC50 is less than 6 nM.

By IC50 is commonly meant the concentration that gives 50% inhibition. A lower IC50 goes with greater potency in that assay.

For the origin of these results see EP2924040A1, “2-Amino-1-(o-tolyl)pyrrolo[3,2-b]quinoxaline-3-carboxamide derivates” (Universität Zürich, priority 2014, dated 2015).
